# Measured values as given in PubChem BioAssay (NCI).
#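 Step 1: Grow cells in 96-well plates. Step 2: Expose to compound for 48 hours at 5 concentrations. Step 3: Interpolate endpoints linearly; if unreached, use highest concentration. Abbreviation: GI50, concentration required for 50% inhibition of growth. TGI marks complete inhibition of growth.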
# Tests used:
# Assay in all cases: NCI tumour cell line growth inhibition, 48 h
# HT29 colon = test system: HT29 colon
# IGROV1 ovarian = test system: IGROV1 ovarian
# MALME-3M melanoma = test system: MALME-3M melanoma
# OVCAR-4 ovarian = test system: OVCAR-4 ovarian
# PC-3 prostate = test system: PC-3 prostate
# SF-268 CNS = test system: SF-268 CNS
# SF-539 CNS = test system: SF-539 CNS
# SK-MEL-28 melanoma = test system: SK-MEL-28 melanoma
# SN12C renal = test system: SN12C renal
# UO-31 renal = test system: UO-31 renal
Structure (SMILES),GI50 (HT29 colon) [µM],TGI (HT29 colon) [µM],GI50 (IGROV1 ovarian) [µM],TGI (IGROV1 ovarian) [µM],GI50 (MALME-3M melanoma) [µM],TGI (MALME-3M melanoma) [µM],GI50 (OVCAR-4 ovarian) [µM],TGI (OVCAR-4 ovarian) [µM],GI50 (PC-3 prostate) [µM],TGI (PC-3 prostate) [µM],GI50 (SF-268 CNS) [µM],TGI (SF-268 CNS) [µM],GI50 (SF-539 CNS) [µM],TGI (SF-539 CNS) [µM],GI50 (SK-MEL-28 melanoma) [µM],TGI (SK-MEL-28 melanoma) [µM],GI50 (SN12C renal) [µM],TGI (SN12C renal) [µM],GI50 (UO-31 renal) [µM],TGI (UO-31 renal) [µM]
O=C(NCCN1CCOCC1)Nc1ccc(-c2cc3c(Nc4ccc(Oc5cccc(C(F)(F)F)c5)c(Cl)c4)ncnc3s2)cc1,0.896,1.69,1.64,6.85,0.832,1.57,3.26,11.5,1.41,5.6,1.76,7.51,0.825,2.01,0.809,1.6,1.97,8.21,0.801,1.75
COc1cc(C2CC(c3ccc4c(c3)OCO4)=NN2C(C)=O)cc(OC)c1OC (centres undefined),0.378,> 100,1.19,97.3,1.88,> 100,5.45,> 100,4.39,> 100,6.42,> 100,0.592,7.29,4.97,> 100,7.48,> 100,3.72,> 86.8
O=C(O)C(Br)C(Br)c1ccccc1[N+](=O)[O-] (centres undefined),,> 100,,> 100,,> 100,,> 100,,> 100,,> 100,,> 100,,> 100,,> 100,,94.9
CCCCCCNC(=O)Oc1ccc(/C(=C(\C)c2ccccc2)c2ccc(OCCN3CCCCC3)cc2)cc1,1.38,3.89,3.01,8.85,1.75,3.46,3.04,10.7,2.58,11.5,4.26,20.2,1.75,3.22,2.06,4.41,1.7,3.4,1.38,2.86
COc1cccc(Cn2cc3c(c2)-c2oncc2CC3)c1,0.306,11.7,0.801,> 100,0.915,80.1,1.3,> 85.4,0.751,> 100,0.918,> 100,0.266,,0.746,> 100,0.597,> 100,0.671,43.7
O=C1/C(=C/c2ccc([N+](=O)[O-])s2)Oc2ccccc21,0.771,4.67,0.839,2.45,1.39,3.92,0.538,2.8,0.387,2.26,0.367,1.5,0.654,2.1,1.25,2.65,1.23,3.04,0.323,2.13
CCCCCCCCCCCCOC1C(C(COC2OC(C(O)CN3CCCCC3)C3OC(C)(C)OC23)NC(=O)Nc2ccccc2)OC2OC(C)(C)OC21 (centres undefined),2,4.73,16.9,39.5,10.1,22.2,9.48,27.3,10.7,24.9,10.3,25.4,16.6,31.4,7.89,15.3,16,33.2,10.3,28.2
COc1ccc(C2C(c3ccccc3)C(=O)N2c2cc(OC)c(OC)c(OC)c2)cc1I (centres undefined),0.344,90.1,0.58,> 100,> 100,> 100,0.709,> 100,0.488,> 100,0.712,> 100,0.234,0.657,2.31,> 100,0.523,> 100,0.693,> 100
Oc1ccc(/C=N/Nc2nc3ccccc3s2)c(O)c1,3.61,13.6,0.904,10.8,1.43,7.26,0.381,2.93,4,> 100,1.11,> 100,1.89,9.82,2.99,> 100,2.09,57.9,0.341,4.23
Cc1[nH]nc2c1N=C(c1ccccc1F)c1cc(C#N)ccc1N2,0.118,7.41,5.4,16.2,14.7,> 25,3.02,8.01,4.93,> 25,0.316,5.8,0.134,4.93,6.5,> 23.5,3.87,15.1,0.435,4.01
Oc1ccc(Br)cc1/C=N/NC(=S)NC12CC3CC(CC(C3)C1)C2,2.02,3.93,1.81,5.89,2.23,6.26,1.25,4.09,1.64,4.94,1.44,4.14,3.19,11.3,2.66,10.1,1.63,3.18,1.33,2.78
CS(=O)(=O)OCCN(CCOS(C)(=O)=O)c1ccc(C=Nc2ccc3oc(=O)ccc3c2)cc1,,53.6,,53.1,,23.8,,41,,80.7,,74.3,,35.3,,64.4,,> 70.5,,2.96
CC(=O)NCCCCCCNC(C)=O,,> 10000,,> 10000,,7700,,> 9590,,> 10000,,> 10000,,> 10000,,> 10000,,> 10000,,> 10000
